# According to patent US8802694B2, “3,6-diazabicyclo[3.1.1]heptanes as neuronal nicotinic acetycholine receptor ligands” (Targacept, Inc., priority 2009, dated 2014):
# Target: T1, Human α4β2 (Homo sapiens, UniProt P17787+P43681)
# T1 construct: host or cells: SH-EP1
# Assay: Competition binding to human α4β2 receptors in membranes of SH-EP1/human α4β2 cells ([3H]-nicotine)
# Conditions: Human α4β2 Ki, membrane competition binding
row,Compound,Ki
1,"CCCOC(=O)N1CC2CC(C1)N2 [3-propoxycarbonyl-3,6-diazabicyclo[3.1.1]heptane]",24 nM
2,"COCCC(=O)N1CC2CC(C1)N2 [3-(2-methoxyethyl)carbonyl-3,6-diazabicyclo[3.1.1]heptane]",72 nM
3,"CC(=O)N1CC2CC(C1)N2 [3-methylcarbonyl-3,6-diazabicyclo[3.1.1]heptane]",170 nM

# Same assay, conditions: membrane competition binding, read-out: Human α4β2 Ki
row,Compound,Ki
1,O=C(Cc1c[nH]c2ccccc12)N1C2CNCC1C2,2200 nM
2,CC(=O)NCCCC(=O)N1CC2CC(C1)N2,1900 nM
3,O=C(COCc1ccccc1)N1C2CNCC1C2,1400 nM
4,O=C(CC1CCOC1)N1CC2CC(C1)N2 (stereo not shown),240 nM
5,O=C(C1Cc2ccccc2C1)N1CC2CC(C1)N2,800 nM
6,O=C([C@@H]1CCCO1)N1C2CNCC1C2,750 nM
7,"CC(C)OC(=O)N1CC2CC(C1)N2 [3-isopropoxycarbonyl-3,6-diazabicyclo[3.1.1]heptane]",130 nM
8,Cc1nocc1C(=O)N1C2CNCC1C2,1100 nM
9,Cn1c(C(=O)N2CC3CC(C2)N3)cc2ccccc21,420 nM
10,O=C(COc1ccc(F)cc1)N1CC2CC(C1)N2,360 nM
11,O=C(C1CCCC1)N1C2CNCC1C2,420 nM
12,O=C(C1CC2CCC1C2)N1C2CNCC1C2 (stereo not shown),1700 nM
13,O=C([C@H]1CCCO1)N1CC2CC(C1)N2,400 nM
14,O=C(CC1CCOCC1)N1CC2CC(C1)N2,2800 nM
15,O=C(C1CC=CCC1)N1C2CNCC1C2 (stereo not shown),1200 nM
16,O=C(CC1CCOCC1)N1C2CNCC1C2,3300 nM
17,O=C(C1CNC1)N1CC2CC(C1)N2,430 nM
18,CC(C)C(=O)N1C2CNCC1C2,260 nM
19,CC1(C)C(C(=O)N2C3CNCC2C3)C1(C)C,11000 nM
20,O=C([C@@H]1CCCO1)N1CC2CC(C1)N2,370 nM
21,CC(=O)NCCC(=O)N1CC2CC(C1)N2,3400 nM
22,O=C(CCOc1ccc(F)cc1)N1C2CNCC1C2,1200 nM
23,O=C(c1ccnc(Cl)c1)N1CC2CC(C1)N2,450 nM
24,O=C(C1CCOCC1)N1CC2CC(C1)N2,320 nM
25,"O=C(c1ccno1)N1CC2CC(C1)N2 [3-(isoxazol-5-yl)carbonyl-3,6-diazabicyclo[3.1.1]heptane]",150 nM

row,Compound,Ki
1,"COCCC(=O)N1C2CNCC1C2 [6-(2-methoxyethyl)carbonyl-3,6-diazabicyclo[3.1.1]heptane]",370 nM
2,O=C(COc1ccc(F)cc1)N1C2CNCC1C2,1300 nM
3,O=C(N1CC2CC(C1)N2)C1(C(F)(F)F)CCC1,6300 nM
4,O=C(C1Cc2ccccc2C1)N1C2CNCC1C2,3000 nM
5,O=C(C1Cc2ccccc21)N1CC2CC(C1)N2 (stereo not shown),2000 nM
6,O=C(C1CCOCC1)N1C2CNCC1C2,2000 nM
7,C[C@@H]1C[C@@H]1C(=O)N1CC2CC(C1)N2,22 nM
8,CO[C@H](C(=O)N1CC2CC(C1)N2)c1ccccc1,950 nM
9,"COCCOC(=O)N1CC2CC(C1)N2 [3-methoxyethoxycarbonyl-3,6-diazabicyclo[3.1.1]heptane]",120 nM
10,O=C(CCOc1ccc(F)cc1)N1CC2CC(C1)N2,660 nM
11,CCC(C)C(=O)N1C2CNCC1C2 (stereo not shown),290 nM
12,Cc1cc(C(=O)N2CC3CC(C2)N3)no1,1100 nM
13,"O=C(C1CCOC1)N1CC2CC(C1)N2 (stereo not shown) [3-(tetrahydrofuran-3-yl)carbonyl-3,6-diazabicyclo[3.1.1]heptane]",270 nM
14,COCC(=O)N1C2CNCC1C2,410 nM
15,O=C(COCc1ccccc1)N1CC2CC(C1)N2,1000 nM
16,O=C(c1cc(Cl)cc(Cl)c1)N1CC2CC(C1)N2,3300 nM
17,O=C(c1cnc(Cl)c(Cl)c1)N1CC2CC(C1)N2,1500 nM
18,O=C(C1Cc2ccccc21)N1C2CNCC1C2 (stereo not shown),9400 nM
19,O=C(c1ccnc(Cl)c1)N1C2CNCC1C2,970 nM
20,CO[C@H](C(=O)N1C2CNCC1C2)c1ccccc1,7100 nM
21,O=C(Cc1c[nH]c2ccccc12)N1CC2CC(C1)N2,750 nM
22,O=C(C1CC=CC1)N1C2CNCC1C2,810 nM
23,CC1(C)CC(C(=O)N2C3CNCC2C3)C1,760 nM
24,O=C(CC1CCCO1)N1CC2CC(C1)N2 (stereo not shown),2900 nM
